What all share (assay type): functional
For assay [1], the system named is Mycolicibacterium smegmatis. In words: Antimicrobial activity against Mycobacterium smegmatis.
Another assay relates to Candida albicans. Briefly: Antimicrobial activity against Candida albicans.
Another assay relates to Staphylococcus aureus. Briefly: Antimicrobial activity against Staphylococcus aureus.

What is called MIC is the lowest concentration that inhibits growth of the organism. Read a high MIC as a less susceptible organism.

≈ marks a conversion by molar mass, not a printed value.

Take `COc1cc2c(cc1OC)[C@H](Cc1ccc(Oc3cc(C[C@H]4c5cc(OC)c(OC)cc5CCN4C)ccc3OC)cc1)N(C)CC2`: the MIC in assay [1] is 100 µg/mL (≈ 157 µM); against Candida albicans, 500 µg/mL (≈ 783 µM). As to `COc1ccc2cc1Oc1ccc(cc1)C[C@H]1c3c(c(O)c(OC)c(OC)c3Oc3c4c(cc(OC)c3OC)[C@H](C2)N(C)CC4)CCN1C` [THALIMIRABINE], the lowest concentration to inhibit growth in assay [1] (MIC) was 100 µg/mL (≈ 150 µM). `COc1ccc(C[C@H]2c3cc(OC)c(OC)c(O)c3CCN2C)cc1Oc1ccc(C[C@H]2c3cc4c(c(OC)c3CCN2C)OCO4)cc1` [THALISTINE]: the MIC in the assay on Staphylococcus aureus came to 1000 µg/mL (≈ 1500 µM); in assay [1] it was 100 µg/mL (≈ 150 µM).

The values are drawn from ChEMBL document CHEMBL1151346, “Alkaloids of Thalictrum XXXIV. Three New Alkaloids, Thalmirabine, Thalistine, and O-Methylthalibrine, and Others From Roots of Thalictrum minus Race B” (1980).
